# Laboratory results: patent US20170137410A1, “FUSED CYCLOALKYL-PYRIMIDINE COMPOUNDS AND USES THEREOF” (Medivation Technologies, Inc., priority 2014, published 2017)
# What was measured:
# Assay type in all cases: biochemical
# Trk B = Trk B (Homo sapiens, UniProt Q16620); assay: HotSpot kinase assay against Trk B; conditions: HotSpot 33P assay, ATP 10 μM-30 μM
# Method: (§1) Kinase assays were performed using test compounds against a panel of Trk kinases: Trk A; Trk B; and Trk C. Each compound was tested at a concentration of 0.1 μM in single duplicate mode against the three kinases. Compounds were prepared as 10 mM stock solutions in DMSO prior to use in the assay. The control compound, staurosporine, was tested at 10 concentrations with three-fold serial dilution starting at 20 μM. IC50 values and curve fits were obtained using Prism (GraphPad Software). IC50 values were determined for staurosporine for comparison.
# (§2) The screening was performed using the “HotSpot” assay platform. The assay measures the conversion of a peptide substrate to ^33P-labelled phosphorylated product. Briefly, specific kinase/substrate pairs along with required cofactors were prepared in reaction buffer. Specifically, the substrate was prepared in reaction buffer (20 mM Hepes, pH 7.5; 10 mM MgCl2; 1 mM EGTA; 0.02% Brij35; 0.02 mg/mL BSA; 0.1 mM Na3VO4; 2 mM DTT; 1% DMSO), followed by delivery of any required cofactor to the resulting substrate solution. The corresponding kinase was delivered into the substrate solution and the reaction mixture was mixed gently. Compound was delivered into the reaction mixture, followed 15-20 min later by addition of a mixture of ATP (Sigma, St. Louis Mo.) and ^33P ATP (specific activity 0.01 μCi/μL final; Perkin Elmer, Waltham, Mass.) to a final concentration of 10 μM-30 μM to initiate the reaction. Reactions were carried out at RT for 120 min, followed by spotting of the reactions onto P81 ion exchange filter paper (Whatman #3698-915; Whatman Inc., Piscataway, N.J.). Unbound phosphate was removed by extensive washing of filters in 0.75% phosphoric acid. […] The percent of enzyme inhibition was calculated based on the percent of remaining kinase activity.
# Trk A = Trk A (Homo sapiens, UniProt P04629); assay: HotSpot kinase assay against Trk A; conditions: HotSpot 33P assay, ATP 10 μM-30 μM
# Chain of Trk A (P04629 33-796): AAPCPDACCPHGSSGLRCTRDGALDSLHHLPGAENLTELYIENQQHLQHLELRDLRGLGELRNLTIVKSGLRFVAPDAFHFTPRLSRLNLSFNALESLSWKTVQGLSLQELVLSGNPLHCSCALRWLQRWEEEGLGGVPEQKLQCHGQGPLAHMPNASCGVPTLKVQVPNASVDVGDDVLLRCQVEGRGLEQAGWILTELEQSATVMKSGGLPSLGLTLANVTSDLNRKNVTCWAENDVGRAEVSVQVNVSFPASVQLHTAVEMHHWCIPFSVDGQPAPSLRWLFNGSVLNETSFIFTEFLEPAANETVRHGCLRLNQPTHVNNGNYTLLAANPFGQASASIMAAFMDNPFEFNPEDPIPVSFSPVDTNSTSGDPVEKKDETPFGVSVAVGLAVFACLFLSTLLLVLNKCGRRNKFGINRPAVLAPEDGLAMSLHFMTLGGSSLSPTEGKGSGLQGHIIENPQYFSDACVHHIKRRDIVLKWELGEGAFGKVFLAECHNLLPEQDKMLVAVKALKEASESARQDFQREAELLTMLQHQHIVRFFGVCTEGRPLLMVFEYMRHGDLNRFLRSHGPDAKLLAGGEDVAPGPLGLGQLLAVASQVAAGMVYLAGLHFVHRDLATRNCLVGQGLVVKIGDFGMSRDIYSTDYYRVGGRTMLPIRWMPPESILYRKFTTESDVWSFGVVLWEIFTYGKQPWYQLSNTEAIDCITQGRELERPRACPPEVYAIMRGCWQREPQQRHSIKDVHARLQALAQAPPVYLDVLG
# Method: as §1, §2
# activated IR = biological target: T1, activated IR (Homo sapiens, UniProt P06213); assay: In vitro IR enzymatic assay (ADP-Glo); conditions: ATP 50 μM; for inhibition at 1 µM: compound 1 μM; for inhibition at 3 µM: compound 3 μM; for inhibition at 30 µM: compound 30 μM
# T1 construct: purchased Millipore 14-803
# T1 sequence (P06213 28-1382): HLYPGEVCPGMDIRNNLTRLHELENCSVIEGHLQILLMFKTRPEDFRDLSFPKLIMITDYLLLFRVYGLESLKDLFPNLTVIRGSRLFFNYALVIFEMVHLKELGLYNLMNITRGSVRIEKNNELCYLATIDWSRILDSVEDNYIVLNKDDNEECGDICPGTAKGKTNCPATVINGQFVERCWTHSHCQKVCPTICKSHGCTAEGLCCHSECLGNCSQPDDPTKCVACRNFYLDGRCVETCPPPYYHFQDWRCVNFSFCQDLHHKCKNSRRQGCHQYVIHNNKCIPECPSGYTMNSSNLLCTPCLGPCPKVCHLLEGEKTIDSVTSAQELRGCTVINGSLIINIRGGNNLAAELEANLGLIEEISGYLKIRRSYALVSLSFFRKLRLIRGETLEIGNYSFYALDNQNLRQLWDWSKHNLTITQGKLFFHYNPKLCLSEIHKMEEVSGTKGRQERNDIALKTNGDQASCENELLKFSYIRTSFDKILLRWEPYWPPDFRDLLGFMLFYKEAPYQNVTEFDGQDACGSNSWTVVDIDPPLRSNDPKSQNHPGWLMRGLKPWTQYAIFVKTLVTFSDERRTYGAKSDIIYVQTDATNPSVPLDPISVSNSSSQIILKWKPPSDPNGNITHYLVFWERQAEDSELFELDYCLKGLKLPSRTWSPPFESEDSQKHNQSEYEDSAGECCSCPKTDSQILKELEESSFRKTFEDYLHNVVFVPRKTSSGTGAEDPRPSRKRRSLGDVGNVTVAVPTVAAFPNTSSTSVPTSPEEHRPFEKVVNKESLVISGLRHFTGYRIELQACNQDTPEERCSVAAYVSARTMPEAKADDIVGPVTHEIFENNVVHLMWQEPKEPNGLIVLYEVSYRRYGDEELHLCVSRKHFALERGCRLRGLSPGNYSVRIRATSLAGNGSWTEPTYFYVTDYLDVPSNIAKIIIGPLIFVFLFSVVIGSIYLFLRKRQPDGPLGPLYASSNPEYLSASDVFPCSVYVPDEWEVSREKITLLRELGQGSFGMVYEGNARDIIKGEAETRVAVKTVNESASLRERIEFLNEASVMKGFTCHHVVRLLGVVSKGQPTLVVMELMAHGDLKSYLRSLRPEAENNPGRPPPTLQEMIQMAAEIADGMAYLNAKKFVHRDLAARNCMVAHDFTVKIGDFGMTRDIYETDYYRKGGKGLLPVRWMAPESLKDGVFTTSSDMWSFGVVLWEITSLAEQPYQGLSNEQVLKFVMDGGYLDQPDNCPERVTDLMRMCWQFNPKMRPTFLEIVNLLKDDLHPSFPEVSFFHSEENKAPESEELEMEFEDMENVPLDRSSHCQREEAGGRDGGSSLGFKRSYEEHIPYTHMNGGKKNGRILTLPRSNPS
# Method: (§3) Inhibition of IGF-1R and IR kinases by compounds described herein were tested. The IC50 values were measured in vitro using an ADP-Glo kinase assay Kit (Promega). For the IGF-1R assay, active recombinant IGF-1R (Millipore #14-802) was used at 1 ng/reaction, the substrate IGF-1R tide (Millipore #12-527) was used at 125 μM and ATP was used at 100 μM. For the IR assay, active recombinant IR (Millipore #14-803) was used at 1 ng/reaction, the substrate Axl tide (Millipore #12-516) was used at 125 μM and ATP at 50 μM. Kinase reactions in both assays were conducted at 30° C. for 20 min with increasing concentrations of the test compounds.
# (§4) The assay results as the percent inhibition of binding are presented in Tables B2 and B3 for IGF-1R and IR respectively.
# activated IGF-1R = biological target: T2, activated IGF-1R (Homo sapiens, UniProt P08069); assay: In vitro IGF-1R enzymatic assay (ADP-Glo); conditions: ATP 100 μM; for inhibition at 1 µM: compound 1 μM; for inhibition at 3 µM: compound 3 μM; for inhibition at 10 µM: compound 10 μM; for inhibition at 30 µM: compound 30 μM
# T2 construct: purchased Millipore 14-802
# T2 sequence (P08069 31-1367): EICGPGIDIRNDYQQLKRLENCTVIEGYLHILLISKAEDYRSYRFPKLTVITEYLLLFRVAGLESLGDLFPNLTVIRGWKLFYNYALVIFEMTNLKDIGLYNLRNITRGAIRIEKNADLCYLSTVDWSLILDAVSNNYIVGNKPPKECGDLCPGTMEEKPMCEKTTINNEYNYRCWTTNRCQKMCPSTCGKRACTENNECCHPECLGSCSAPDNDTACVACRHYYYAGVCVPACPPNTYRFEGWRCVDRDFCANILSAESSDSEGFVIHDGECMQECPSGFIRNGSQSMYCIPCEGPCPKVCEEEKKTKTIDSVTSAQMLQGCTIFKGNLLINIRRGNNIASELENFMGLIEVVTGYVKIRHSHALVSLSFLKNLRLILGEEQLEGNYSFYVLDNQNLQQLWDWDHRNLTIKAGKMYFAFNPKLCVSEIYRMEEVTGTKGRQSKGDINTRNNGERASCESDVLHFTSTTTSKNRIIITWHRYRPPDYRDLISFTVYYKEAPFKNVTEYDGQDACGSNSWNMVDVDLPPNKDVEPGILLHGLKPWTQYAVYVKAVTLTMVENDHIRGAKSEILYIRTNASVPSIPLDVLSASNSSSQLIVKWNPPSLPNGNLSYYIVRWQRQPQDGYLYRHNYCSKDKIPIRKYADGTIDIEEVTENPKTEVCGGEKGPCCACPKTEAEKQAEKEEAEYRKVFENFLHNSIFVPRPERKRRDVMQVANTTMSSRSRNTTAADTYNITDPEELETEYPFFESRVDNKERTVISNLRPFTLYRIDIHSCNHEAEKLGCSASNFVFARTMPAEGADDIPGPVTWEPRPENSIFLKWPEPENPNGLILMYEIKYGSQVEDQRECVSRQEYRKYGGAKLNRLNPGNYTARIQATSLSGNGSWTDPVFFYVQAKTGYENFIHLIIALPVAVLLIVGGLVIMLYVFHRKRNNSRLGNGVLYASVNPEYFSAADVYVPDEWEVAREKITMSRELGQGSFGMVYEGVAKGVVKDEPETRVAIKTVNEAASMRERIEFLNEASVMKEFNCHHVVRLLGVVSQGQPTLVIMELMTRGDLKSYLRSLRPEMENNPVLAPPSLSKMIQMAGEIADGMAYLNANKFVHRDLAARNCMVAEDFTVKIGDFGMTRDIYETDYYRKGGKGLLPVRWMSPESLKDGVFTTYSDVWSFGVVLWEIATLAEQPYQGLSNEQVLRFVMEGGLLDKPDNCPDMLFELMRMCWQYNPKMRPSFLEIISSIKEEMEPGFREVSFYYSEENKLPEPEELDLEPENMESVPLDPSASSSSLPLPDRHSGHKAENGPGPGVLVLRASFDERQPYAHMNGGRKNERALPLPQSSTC
# Method: as §3, §4
# Trk C = Trk C (Homo sapiens, UniProt Q16288); assay: HotSpot kinase assay against Trk C; conditions: HotSpot 33P assay, ATP 10 μM-30 μM
# Chain of Trk C (Q16288 32-839): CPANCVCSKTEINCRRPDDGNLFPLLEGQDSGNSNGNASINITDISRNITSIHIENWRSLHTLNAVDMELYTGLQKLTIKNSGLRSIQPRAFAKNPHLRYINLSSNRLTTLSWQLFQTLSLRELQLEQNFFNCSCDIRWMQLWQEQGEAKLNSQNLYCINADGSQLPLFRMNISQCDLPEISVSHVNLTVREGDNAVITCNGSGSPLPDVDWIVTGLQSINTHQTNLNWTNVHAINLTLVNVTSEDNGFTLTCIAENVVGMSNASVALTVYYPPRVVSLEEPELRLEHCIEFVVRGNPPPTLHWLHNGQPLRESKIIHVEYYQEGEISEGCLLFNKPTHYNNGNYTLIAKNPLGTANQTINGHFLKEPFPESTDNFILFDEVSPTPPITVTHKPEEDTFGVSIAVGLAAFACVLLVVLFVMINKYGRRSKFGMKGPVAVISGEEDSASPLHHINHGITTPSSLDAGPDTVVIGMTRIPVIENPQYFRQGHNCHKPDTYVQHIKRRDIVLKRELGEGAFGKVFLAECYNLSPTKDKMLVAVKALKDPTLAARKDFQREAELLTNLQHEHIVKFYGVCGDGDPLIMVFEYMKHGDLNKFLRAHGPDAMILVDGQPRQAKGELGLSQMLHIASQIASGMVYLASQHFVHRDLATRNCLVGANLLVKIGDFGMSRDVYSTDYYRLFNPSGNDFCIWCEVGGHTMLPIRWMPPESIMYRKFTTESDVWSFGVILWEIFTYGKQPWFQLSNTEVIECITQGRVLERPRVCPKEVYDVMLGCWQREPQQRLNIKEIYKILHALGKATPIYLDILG
# Method: as §1, §2
# Chain of Trk B (Q16620 32-822): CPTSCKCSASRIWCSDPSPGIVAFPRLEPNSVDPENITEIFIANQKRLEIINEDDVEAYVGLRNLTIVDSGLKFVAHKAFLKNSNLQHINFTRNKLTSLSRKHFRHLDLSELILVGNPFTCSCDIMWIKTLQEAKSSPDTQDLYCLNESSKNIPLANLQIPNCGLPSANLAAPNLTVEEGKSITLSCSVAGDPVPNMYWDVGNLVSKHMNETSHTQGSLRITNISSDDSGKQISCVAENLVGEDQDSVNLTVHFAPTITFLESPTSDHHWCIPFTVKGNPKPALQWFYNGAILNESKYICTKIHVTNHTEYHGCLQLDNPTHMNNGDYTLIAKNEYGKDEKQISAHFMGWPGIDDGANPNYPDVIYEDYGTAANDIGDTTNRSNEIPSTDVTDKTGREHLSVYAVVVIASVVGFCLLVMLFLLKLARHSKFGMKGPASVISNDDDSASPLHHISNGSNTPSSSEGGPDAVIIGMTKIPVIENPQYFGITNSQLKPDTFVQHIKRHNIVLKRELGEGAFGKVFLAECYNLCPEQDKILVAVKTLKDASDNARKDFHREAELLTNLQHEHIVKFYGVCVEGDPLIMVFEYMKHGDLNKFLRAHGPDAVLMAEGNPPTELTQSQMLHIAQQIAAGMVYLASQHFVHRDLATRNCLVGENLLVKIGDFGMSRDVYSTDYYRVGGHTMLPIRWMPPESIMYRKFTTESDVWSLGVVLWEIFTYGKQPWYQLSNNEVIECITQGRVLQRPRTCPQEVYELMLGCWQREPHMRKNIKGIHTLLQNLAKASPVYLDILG
Compound,IC50 (Trk B),IC50 (Trk A),inhibition at 1 µM (activated IR),inhibition at 3 µM (activated IR),inhibition at 30 µM (activated IR),inhibition at 1 µM (activated IGF-1R),inhibition at 3 µM (activated IGF-1R),inhibition at 10 µM (activated IGF-1R),inhibition at 30 µM (activated IGF-1R),IC50 (Trk C)
"CC1(C)CCN(C(=O)[C@@H]2CCCN2c2nc3c(c(Nc4cc(C5CCCC5)n[nH]4)n2)CCC3)CC1 [135b, [(2S)-1-[4-[(3-cyclopentyl-1H-pyrazol-5-yl)amino]-6,7-dihydro-5H-cyclopenta[d]pyrimidin-2-yl]pyrrolidin-2-yl]-(4,4-dimethyl-1-piperidyl)methanone]",1 nM,12 nM,11%,26%,88%,12%,14%,43%,82%,2.5 nM
"CN1CCN(C(=O)[C@H]2CCCN2c2nc3c(c(Nc4cc(C5CCCC5)n[nH]4)n2)CCC3)CC1=O [136a, 4-[(2R)-1-[4-[(3-cyclopentyl-1H-pyrazol-5-yl)amino]-6,7-dihydro-5H-cyclopenta[d]pyrimidin-2-yl]pyrrolidine-2-carbonyl]-1-methyl-piperazin-2-one]",113 nM,237 nM,64%,–,–,72%,–,–,–,83 nM
"CN1CCN(C(=O)[C@@H]2CCCN2c2nc3c(c(Nc4cc(C5CCCC5)n[nH]4)n2)CCC3)CC1=O [136b, 4-[(2S)-1-[4-[(3-cyclopentyl-1H-pyrazol-5-yl)amino]-6,7-dihydro-5H-cyclopenta[d]pyrimidin-2-yl]pyrrolidine-2-carbonyl]-1-methyl-piperazin-2-one]",106 nM,1730 nM,-2%,21%,72%,15%,12%,28%,63%,42.4 nM
"CC(=O)N1CCN(C(=O)[C@@H]2CCCN2c2nc3c(c(Nc4cc(C5CCCC5)n[nH]4)n2)CCC3)CC1 [137b, 1-[4-[(2S)-1-[4-[(3-cyclopentyl-1H-pyrazol-5-yl)amino]-6,7-dihydro-5H-cyclopenta[d]pyrimidin-2-yl]pyrrolidine-2-carbonyl]piperazin-1-yl]ethanone]",265 nM,1910 nM,19%,9%,60%,10%,-1%,15%,43%,110 nM

# Results, then the molecule that gave them:
IC50 (Trk B),IC50 (Trk A),inhibition at 1 µM (activated IR),inhibition at 3 µM (activated IR),inhibition at 30 µM (activated IR),inhibition at 1 µM (activated IGF-1R),inhibition at 3 µM (activated IGF-1R),inhibition at 10 µM (activated IGF-1R),inhibition at 30 µM (activated IGF-1R),IC50 (Trk C),Compound
246 nM,878 nM,37%,61%,96%,–,62%,83%,95%,105 nM,"CC(C)c1cc(Nc2nc(N3CCC[C@@H]3C(=O)N3CCCC3)nc3c2CCC3)n[nH]1 [138a, (R)-(1-(4-((5-isopropyl-1H-pyrazol-3-yl)amino)-6,7-dihydro-5H-cyclopenta[d]pyrimidin-2-yl)pyrrolidin-2-yl)(pyrrolidin-1-yl)methanone]"
5 nM,141 nM,21%,46%,92%,–,57%,80%,94%,1.4 nM,"CC(C)c1cc(Nc2nc(N3CCC[C@H]3C(=O)N3CCCC3)nc3c2CCC3)n[nH]1 [138b, (S)-(1-(4-((5-isopropyl-1H-pyrazol-3-yl)amino)-6,7-dihydro-5H-cyclopenta[d]pyrimidin-2-yl)pyrrolidin-2-yl)(pyrrolidin-1-yl)methanone]"
231 nM,135 nM,17%,47%,97%,27%,47%,74%,96%,146 nM,"CC1(C)CCN(C(=O)[C@H]2CCCN2c2nc3c(c(Nc4cc(C5CCCC5)n[nH]4)n2)CCC3)CC1 [141a, (R)-(1-(4-((5-cyclopentyl-1H-pyrazol-3-yl)amino)-6,7-dihydro-5H-cyclopenta[d]pyrimidin-2-yl)pyrrolidin-2-yl)(4,4-dimethylpiperidin-1-yl)methanone]"
